Results published in PMC5856591 (Cell chemical biology, 2018).
pIC50: −log10 of the molar value.

Columns and labels:
S. cerevisiae BY4743Δ8 [1] = test: MIC on solid medium; format: cell-based, Saccharomyces cerevisiae; conditions: 72 hours, 30°C
[2] = test system: cki1 and kes1 “bypass Sec14p” mutants; test: spot growth assay of bypass Sec14p mutants; format: cell-based, Saccharomyces cerevisiae; conditions: 20 μM on agar plates
Sec14p = Sec14p (Saccharomyces cerevisiae, UniProt P24280); test: in vitro [3H]-PtdIns lipid transfer assay, recombinant Sec14p; format: biochemical, S. cerevisiae; conditions: for inhibition of Sec14p-mediated PtdIns-transfer (in words): 20 μM SMI end-point assay
PITPα = biological target: T1, PITPα (Mus musculus, UniProt P53810); test: in vitro [3H]-PtdIns lipid transfer assay, mammalian PITPα; conditions: 20 μM
T1 sequence (P53810 1-271): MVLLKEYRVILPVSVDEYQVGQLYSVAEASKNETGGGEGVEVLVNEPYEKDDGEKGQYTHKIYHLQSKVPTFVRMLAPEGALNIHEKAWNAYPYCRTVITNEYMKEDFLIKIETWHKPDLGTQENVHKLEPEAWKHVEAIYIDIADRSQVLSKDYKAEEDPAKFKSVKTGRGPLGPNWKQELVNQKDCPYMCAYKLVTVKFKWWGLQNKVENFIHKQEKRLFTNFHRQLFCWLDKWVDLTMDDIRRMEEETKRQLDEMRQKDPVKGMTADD

[3] = test system: S. cerevisiae SEC14/sec14; test: growth assay with heterozygous SEC14 deletion strain; format: cell-based, Saccharomyces cerevisiae; conditions: for IC50: Saccharomyces cerevisiae, SEC14/SEC14, read-out: IC50 [μM] S. cerevisiae SEC14/sec14
Sec14p of C. albicans = Sec14p of C. albicans (Candida albicans, UniProt P46250); test: in vitro [3H]-PtdIns lipid transfer assay, C. albicans Sec14p; format: biochemical; conditions: for inhibition of PtdIns-transfer by C. albicans protein (in words): tested concentration range
Sec14p^V155A = test: [3H]-PtdIns transfer assay with recombinant Sec14p V155A; format: biochemical, S. cerevisiae
S. cerevisiae BY4743Δ8 [4] = test: growth assay, wildtype versus efflux-deficient wildtypeΔ8; format: cell-based, Saccharomyces cerevisiae; conditions: ratio of growth IC50 wildtype to wildtypeΔ8
[5] = test system: mutant Sec14ps (Y151H, V154G, V155A, S173L, S201G); test: [3H]-PtdIns transfer assay with recombinant mutant Sec14ps; format: biochemical, S. cerevisiae; conditions: all mutant proteins but one
[6] = test system: S. cerevisiae wildtype BY4743; test: growth-inhibitory potency on wildtype S. cerevisiae; conditions: Saccharomyces cerevisiae, read-out: IC50 [μM] S. cerevisiae wildtype, cell based growth assay, wildtype
HCT116 cells = test: CellTiter-Glo luminescent cell viability assay; format: cell-based; conditions: Homo sapiens, HCT-116, 72 h, read-out: IC50 [μM] HCT116
[7] = kinetic aqueous solubility; format: physicochemical; conditions: pH 7.4
Sec14p of C. glabrata = Sec14p of C. glabrata (Candida glabrata, UniProt P53989); test: in vitro [3H]-PtdIns lipid transfer assay, C. glabrata Sec14p; format: biochemical
Chain of Sec14p of C. glabrata (P53989 whole entry): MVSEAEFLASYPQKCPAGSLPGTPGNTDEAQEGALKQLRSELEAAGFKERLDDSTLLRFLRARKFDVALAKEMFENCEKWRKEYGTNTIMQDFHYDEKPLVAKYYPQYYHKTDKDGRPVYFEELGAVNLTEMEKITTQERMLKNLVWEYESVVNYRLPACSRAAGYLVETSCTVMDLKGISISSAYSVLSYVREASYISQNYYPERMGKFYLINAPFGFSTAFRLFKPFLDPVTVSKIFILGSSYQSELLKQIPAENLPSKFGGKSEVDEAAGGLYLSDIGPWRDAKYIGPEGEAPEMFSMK

Chain of Sec14p (P24280 whole entry): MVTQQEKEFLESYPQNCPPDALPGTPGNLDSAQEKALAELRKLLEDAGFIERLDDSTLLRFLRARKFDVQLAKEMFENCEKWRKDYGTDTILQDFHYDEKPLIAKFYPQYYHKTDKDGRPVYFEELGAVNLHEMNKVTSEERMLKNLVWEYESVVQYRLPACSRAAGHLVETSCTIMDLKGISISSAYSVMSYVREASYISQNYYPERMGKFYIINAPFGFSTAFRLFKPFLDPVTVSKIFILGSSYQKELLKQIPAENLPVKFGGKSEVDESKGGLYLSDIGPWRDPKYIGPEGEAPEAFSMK
Chain of Sec14p of C. albicans (P46250 whole entry): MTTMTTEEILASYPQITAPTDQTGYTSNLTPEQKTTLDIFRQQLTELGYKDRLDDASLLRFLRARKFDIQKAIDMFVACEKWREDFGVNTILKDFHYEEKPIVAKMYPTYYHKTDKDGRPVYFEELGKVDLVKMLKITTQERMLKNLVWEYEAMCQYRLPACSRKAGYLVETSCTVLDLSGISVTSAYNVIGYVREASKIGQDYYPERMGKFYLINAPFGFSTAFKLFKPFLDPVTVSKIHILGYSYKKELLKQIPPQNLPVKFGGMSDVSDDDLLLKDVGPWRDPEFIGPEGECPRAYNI

| Structure (SMILES) | Minimal inhibitory concentration S. cerevisiae BY4743Δ8 (S. cerevisiae BY4743Δ8 [1]) | growth of bypass Sec14p mutants under compound challenge (in words) [2] | inhibition of Sec14p-mediated PtdIns-transfer (in words) (Sec14p) | inhibition of PtdIns-transfer by mammalian PITPα (in words) (PITPα) | fitness of SEC14/sec14Δ heterozygote relative to isogenic wildtype (in words) [3] | IC50 [3] | inhibition of PtdIns-transfer by C. albicans protein (in words) (Sec14p of C. albicans) | increase in IC50 of Sec14p^V155A relative to wild-type Sec14p (Sec14p^V155A) | fold IC50 shift S. cerevisiae wildtype/wildtypeΔ8 (S. cerevisiae BY4743Δ8 [4]) | sensitivity of mutant Sec14ps other than V155A (in words) [5] | IC50 [6] | IC50 (HCT116 cells) | solubility in pure aqueous solutions (in words) [7] | pIC50 (Sec14p) | pIC50 (Sec14p of C. albicans) | pIC50 (Sec14p of C. glabrata) |
| --- | --- | --- | --- | --- | --- | --- | --- | --- | --- | --- | --- | --- | --- | --- | --- | --- |
| CC[C@@H]([C@H](C)O)n1ncn(-c2ccc(N3CCN(c4ccc(OC[C@@H]5CO[C@@](Cn6cncn6)(c6ccc(F)cc6F)C5)cc4)CC3)cc2)c1=O [Posaconazole] | <0.3 µM |  |  |  |  |  |  |  |  |  |  |  |  |  |  |  |
| O=C(NCc1ccc2c(c1)OCO2)c1ccc(Br)cc1F [Compound 3] |  | indifferent to challenge | clear inhibition | no such inhibitory effects | decreased fitness | 1.7 µM | did not inhibit | 17 fold | 2.8x fold | essentially indifferent | 7 µM | > 100 µM |  |  |  |  |
| O=C(NCc1ccc2c(c1)OCO2)c1ncc(Br)cc1F [Compound 2] |  | indifferent to challenge | clear inhibition | no such inhibitory effects | decreased fitness | 9.4 µM | did not inhibit |  | 2.7x fold |  | 28.5 µM | > 100 µM | better solubility than compound 3 | 5.17 | < 4.00 | 4.96 |
